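Interpolation was linear, between the two tested concentrations surrounding the appropriate level; five concentrations were tested over 48 hours in 96-well plates. At the GI50, growth is halved. TGI denotes the concentration required for complete inhibition of growth.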
Tests used:
Assay in all cases: DTP human tumour cell line panel, 48 h; in the data active means GI50 below about 0.43 µM; inactive means the rest
LOX IMVI melanoma = system: LOX IMVI melanoma
NCI-H226 lung = system: NCI-H226 lung
OVCAR-5 ovarian = system: OVCAR-5 ovarian
SK-MEL-5 melanoma = system: SK-MEL-5 melanoma
OVCAR-3 ovarian = system: OVCAR-3 ovarian
PC-3 prostate = system: PC-3 prostate
IGROV1 ovarian = system: IGROV1 ovarian
A498 renal = system: A498 renal
U251 CNS = system: U251 CNS
MDA-MB-231 breast = system: MDA-MB-231 breast
NCI-H522 lung = system: NCI-H522 lung
UACC-257 melanoma = system: UACC-257 melanoma
CCRF-CEM leukemia = system: CCRF-CEM leukemia
HL-60(TB) leukemia = system: HL-60(TB) leukemia
HOP-62 NSCLC = system: HOP-62 NSCLC
EKVX NSCLC = system: EKVX NSCLC
NCI-H460 lung = system: NCI-H460 lung
CAKI-1 renal = system: CAKI-1 renal
SF-295 CNS = system: SF-295 CNS
RPMI-8226 leukemia = system: RPMI-8226 leukemia
HCT-116 colon = system: HCT-116 colon
SF-539 CNS = system: SF-539 CNS
NCI/ADR-RES ovarian = system: NCI/ADR-RES ovarian
HS 578T breast = system: HS 578T breast
M14 melanoma = system: M14 melanoma
K-562 leukemia = system: K-562 leukemia
COLO 205 colon = system: COLO 205 colon
786-0 renal = system: 786-0 renal
ACHN renal = system: ACHN renal
HCC-2998 colon = system: HCC-2998 colon
SN12C renal = system: SN12C renal
SK-OV-3 ovarian = system: SK-OV-3 ovarian
MDA-MB-435 = system: MDA-MB-435
SF-268 CNS = system: SF-268 CNS
MALME-3M melanoma = system: MALME-3M melanoma
HCT-15 colon = system: HCT-15 colon
HOP-92 NSCLC = system: HOP-92 NSCLC
T-47D breast = system: T-47D breast
SW-620 colon = system: SW-620 colon
SK-MEL-2 melanoma = system: SK-MEL-2 melanoma
A549 NSCLC = system: A549 NSCLC
UACC-62 melanoma = system: UACC-62 melanoma
DU-145 prostate = system: DU-145 prostate
UO-31 renal = system: UO-31 renal
KM12 colon = system: KM12 colon
TK-10 renal = system: TK-10 renal
OVCAR-8 ovarian = system: OVCAR-8 ovarian
MCF7 breast = system: MCF7 breast
SNB-19 CNS = system: SNB-19 CNS
BT-549 breast = system: BT-549 breast
RXF 393 renal = system: RXF 393 renal
NCI-H23 lung = system: NCI-H23 lung
OVCAR-4 ovarian = system: OVCAR-4 ovarian
SK-MEL-28 melanoma = system: SK-MEL-28 melanoma
HT29 colon = system: HT29 colon
SNB-75 CNS = system: SNB-75 CNS
MOLT-4 leukemia = system: MOLT-4 leukemia

O=C(OC(CNc1c(C(=O)c2ccccc2)c(=O)n(Cc2ccccc2)c(=O)n1Cc1ccccc1)CN1CCOCC1)c1ccccc1 (stereo unspecified)
inactive: GI50 (LOX IMVI melanoma) 59 µM | GI50 (NCI-H226 lung) 49.9 µM | GI50 (OVCAR-5 ovarian) > 100 µM | GI50 (SK-MEL-5 melanoma) 37.7 µM | GI50 (OVCAR-3 ovarian) 34.1 µM | GI50 (PC-3 prostate) 38.6 µM | GI50 (IGROV1 ovarian) 65.2 µM | GI50 (A498 renal) 37.4 µM | GI50 (U251 CNS) 42.3 µM | GI50 (MDA-MB-231 breast) 42.8 µM | GI50 (NCI-H522 lung) 47.2 µM | GI50 (UACC-257 melanoma) 76.8 µM | GI50 (CCRF-CEM leukemia) 33.9 µM | GI50 (HL-60(TB) leukemia) 30.9 µM | GI50 (HOP-62 NSCLC) 55.5 µM | GI50 (EKVX NSCLC) 52.9 µM | GI50 (NCI-H460 lung) 46.2 µM | GI50 (CAKI-1 renal) 34.7 µM | GI50 (SF-295 CNS) 41.6 µM | GI50 (RPMI-8226 leukemia) 26.8 µM | GI50 (HCT-116 colon) 41.1 µM | GI50 (SF-539 CNS) 91.8 µM | GI50 (NCI/ADR-RES ovarian) 47.7 µM | GI50 (HS 578T breast) 40.2 µM | GI50 (M14 melanoma) 38.4 µM | GI50 (K-562 leukemia) 32.3 µM | GI50 (COLO 205 colon) 46.3 µM | GI50 (786-0 renal) 70.4 µM | GI50 (ACHN renal) 46.8 µM | GI50 (HCC-2998 colon) 47.4 µM | GI50 (SN12C renal) 50.7 µM | GI50 (SK-OV-3 ovarian) > 100 µM | GI50 (MDA-MB-435) 86.7 µM | GI50 (SF-268 CNS) > 100 µM | GI50 (MALME-3M melanoma) > 100 µM | GI50 (HCT-15 colon) 38.5 µM | GI50 (HOP-92 NSCLC) 29.6 µM | GI50 (T-47D breast) > 100 µM | GI50 (SW-620 colon) 76.4 µM | GI50 (SK-MEL-2 melanoma) 56.7 µM | GI50 (A549 NSCLC) 49.3 µM | GI50 (UACC-62 melanoma) 38.8 µM | GI50 (DU-145 prostate) > 100 µM | GI50 (UO-31 renal) 52.8 µM | GI50 (KM12 colon) 42.1 µM | GI50 (TK-10 renal) 69 µM | GI50 (OVCAR-8 ovarian) 64.7 µM | GI50 (MCF7 breast) 48.1 µM | GI50 (SNB-19 CNS) 71.3 µM | GI50 (BT-549 breast) 41.3 µM | GI50 (RXF 393 renal) 34.7 µM | GI50 (NCI-H23 lung) 43.2 µM
82.8 µM: TGI (RPMI-8226 leukemia)
> 100 µM: TGI (LOX IMVI melanoma) | TGI (NCI-H226 lung) | TGI (OVCAR-5 ovarian) | TGI (SK-MEL-5 melanoma) | TGI (OVCAR-3 ovarian) | TGI (PC-3 prostate) | TGI (IGROV1 ovarian) | TGI (A498 renal) | TGI (U251 CNS) | TGI (MDA-MB-231 breast) | TGI (NCI-H522 lung) | TGI (UACC-257 melanoma) | TGI (CCRF-CEM leukemia) | TGI (HL-60(TB) leukemia) | TGI (HOP-62 NSCLC) | TGI (EKVX NSCLC) | TGI (NCI-H460 lung) | TGI (CAKI-1 renal) | TGI (SF-295 CNS) | TGI (HCT-116 colon) | TGI (SF-539 CNS) | TGI (NCI/ADR-RES ovarian) | TGI (HS 578T breast) | TGI (M14 melanoma) | TGI (K-562 leukemia) | TGI (COLO 205 colon) | TGI (786-0 renal) | TGI (ACHN renal) | TGI (HCC-2998 colon) | TGI (SN12C renal) | TGI (SK-OV-3 ovarian) | TGI (MDA-MB-435) | TGI (SF-268 CNS) | TGI (MALME-3M melanoma) | TGI (HCT-15 colon) | TGI (HOP-92 NSCLC) | TGI (T-47D breast) | TGI (SW-620 colon) | TGI (SK-MEL-2 melanoma) | TGI (A549 NSCLC) | TGI (UACC-62 melanoma) | TGI (DU-145 prostate) | TGI (UO-31 renal) | TGI (KM12 colon) | TGI (TK-10 renal) | TGI (OVCAR-8 ovarian) | TGI (MCF7 breast) | TGI (SNB-19 CNS) | TGI (BT-549 breast) | TGI (RXF 393 renal) | TGI (NCI-H23 lung)

COc1cc2c3c(n(CCCN=[N+]=[N-])c(=O)c2cc1OC)-c1ccc(C#N)cc1C3=O
inactive: GI50 (OVCAR-4 ovarian) > 100 µM | GI50 (LOX IMVI melanoma) 16.9 µM | GI50 (NCI-H226 lung) 42.1 µM | GI50 (OVCAR-5 ovarian) 88.7 µM | GI50 (SK-MEL-5 melanoma) > 100 µM | GI50 (OVCAR-3 ovarian) 17 µM | GI50 (PC-3 prostate) > 100 µM | GI50 (A498 renal) 18.5 µM | GI50 (U251 CNS) 10.5 µM | GI50 (MDA-MB-231 breast) 2.93 µM | GI50 (NCI-H522 lung) 14.5 µM | GI50 (UACC-257 melanoma) > 100 µM | GI50 (SK-MEL-28 melanoma) > 100 µM | GI50 (CCRF-CEM leukemia) > 100 µM | GI50 (HL-60(TB) leukemia) > 100 µM | GI50 (HOP-62 NSCLC) 14.2 µM | GI50 (EKVX NSCLC) 28.9 µM | GI50 (NCI-H460 lung) 27.7 µM | GI50 (CAKI-1 renal) 32 µM | GI50 (SF-295 CNS) 14.1 µM | GI50 (RPMI-8226 leukemia) > 100 µM | GI50 (HCT-116 colon) 24.1 µM | GI50 (SF-539 CNS) 17.4 µM | GI50 (NCI/ADR-RES ovarian) 72.4 µM | GI50 (HS 578T breast) 9.67 µM | GI50 (M14 melanoma) 46.7 µM | GI50 (K-562 leukemia) > 100 µM | GI50 (COLO 205 colon) 92.3 µM | GI50 (786-0 renal) 13.1 µM | GI50 (ACHN renal) 3.3 µM | GI50 (HCC-2998 colon) 44.6 µM | GI50 (SN12C renal) 15.7 µM | GI50 (SK-OV-3 ovarian) 15.5 µM | GI50 (MDA-MB-435) > 100 µM | GI50 (SF-268 CNS) 17.7 µM | GI50 (MALME-3M melanoma) 70.8 µM | GI50 (HT29 colon) > 100 µM | GI50 (HCT-15 colon) 57.9 µM | GI50 (HOP-92 NSCLC) 21.2 µM | GI50 (T-47D breast) > 100 µM | GI50 (SNB-75 CNS) 4.27 µM | GI50 (SW-620 colon) > 100 µM | GI50 (SK-MEL-2 melanoma) 16.6 µM | GI50 (A549 NSCLC) > 100 µM | GI50 (UACC-62 melanoma) 12.4 µM | GI50 (DU-145 prostate) 34.3 µM | GI50 (UO-31 renal) > 100 µM | GI50 (KM12 colon) > 100 µM | GI50 (TK-10 renal) 17 µM | GI50 (MOLT-4 leukemia) > 100 µM | GI50 (OVCAR-8 ovarian) 49.1 µM | GI50 (MCF7 breast) > 100 µM | GI50 (SNB-19 CNS) 37 µM | GI50 (BT-549 breast) 12.9 µM | GI50 (RXF 393 renal) 12.2 µM | GI50 (NCI-H23 lung) 8.75 µM
27.6 µM: TGI (U251 CNS)
33.3 µM: TGI (HOP-62 NSCLC)
> 100 µM: TGI (OVCAR-4 ovarian) | TGI (NCI-H226 lung) | TGI (OVCAR-5 ovarian) | TGI (SK-MEL-5 melanoma) | TGI (PC-3 prostate) | TGI (NCI-H522 lung) | TGI (UACC-257 melanoma) | TGI (SK-MEL-28 melanoma) | TGI (CCRF-CEM leukemia) | TGI (HL-60(TB) leukemia) | TGI (EKVX NSCLC) | TGI (NCI-H460 lung) | TGI (CAKI-1 renal) | TGI (RPMI-8226 leukemia) | TGI (HCT-116 colon) | TGI (NCI/ADR-RES ovarian) | TGI (M14 melanoma) | TGI (K-562 leukemia) | TGI (COLO 205 colon) | TGI (HCC-2998 colon) | TGI (SN12C renal) | TGI (MDA-MB-435) | TGI (SF-268 CNS) | TGI (MALME-3M melanoma) | TGI (HT29 colon) | TGI (HCT-15 colon) | TGI (T-47D breast) | TGI (SW-620 colon) | TGI (A549 NSCLC) | TGI (DU-145 prostate) | TGI (UO-31 renal) | TGI (KM12 colon) | TGI (MOLT-4 leukemia) | TGI (OVCAR-8 ovarian) | TGI (MCF7 breast) | TGI (SNB-19 CNS)
40.3 µM: TGI (SK-OV-3 ovarian)
86.1 µM: TGI (SK-MEL-2 melanoma)
21.4 µM: TGI (SNB-75 CNS)
30.2 µM: TGI (RXF 393 renal)
28 µM: TGI (BT-549 breast)
58.2 µM: TGI (OVCAR-3 ovarian)
38.9 µM: TGI (HS 578T breast)
79.1 µM: TGI (HOP-92 NSCLC)
58.5 µM: TGI (A498 renal)
33.7 µM: TGI (786-0 renal)
37.4 µM: TGI (UACC-62 melanoma)
47.2 µM: TGI (SF-539 CNS)
34.9 µM: TGI (TK-10 renal)
22 µM: TGI (NCI-H23 lung)
16.2 µM: TGI (MDA-MB-231 breast)
46 µM: TGI (LOX IMVI melanoma)
13.1 µM: TGI (ACHN renal)
31.5 µM: TGI (SF-295 CNS)

Source: PubChem BioAssay (NCI)
